Entries after “also recorded” stand apart in the source; their conditions may differ.
Assays:
[1] = system: dental unit waterlines bacteria; test: Antibacterial activity: growth in R2Am medium after disinfection of tubings;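 further: disinfected tubing pieces kept 7 days at room temperature in R2Am medium, then scored for presence or absence of bacterial growth by absorbance at 590 nm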
Procedure: To test the antibacterial activity, we used the same setup as above. After the 1 or 18 hour incubation, tubings were rinsed with sterile water. Pieces of tubings were dropped in sterile test tubes containing 4 ml of R2Am medium. Test tubes were capped and incubated for 7 days at room temperature. […] Data were recorded as presence or absence of growth with a spectrophotometer at λ=590 nm.

[2] = system: mature biofilms on lumen of dental unit waterlines tubings; test: Biofilm removal from dental unit waterline tubing pieces, binocular microscope 40x, arbitrary scale; assay type: cell-based, dental unit waterlines bacteria; conditions: for detergent capable of dislodging biofilms: different types of detergents tried; on RESULTS AFTER DISINFECTION 1 hour (biofilm scale): key: −: no biofilm; ++++: + ++ + : no significant removal of film; on RESULTS AFTER DISINFECTION 18 hours (biofilm scale): key: −: no biofilm; ++++: + ++ + : no significant removal of film
Procedure: Two-cm long pieces of dental unit waterlines tubings were used. These tubings were taken from functional dental units installed at the faculty of dentistry of the University of Montreal. […] The pieces were sectioned longitudinally with a sterile scalpel blade to expose the biofilm. Another series of tubings was left untouched. Sections of tubings were placed in sterile 5 ml disposable test tubes containing solutions to be tested.
After 1 or 18 hours without agitation at room temperature, tubings were rinsed three times with sterile water.

[3] = system: Mycobacterium sp.; assay type: cell-based
[4] = selected acid 1% with H2O2 5%, EDTA 1%, SDS 1%, pH 5,0, tubing incubated 7 days in R2Am, 590 nm
[5] = acid 1% in H2O2 5%/EDTA 1%/SDS 1% solution, pH 5.0, 1 hour or 18 hours
[6] = selected acid 1% with H2O2 5%, EDTA 1%, SDS 1%, pH 5,0, 1 hour contact, room temperature, no agitation
[7] = selected acid 1% with H2O2 5%, EDTA 1%, SDS 1%, pH 5,0, 18 hours contact, room temperature, no agitation

| Molecule | RESULTS AFTER DISINFECTION Growth [1, 4] | acceptably performing acids: decontamination within the specified times [2, 5] | also measured |
| --- | --- | --- | --- |
| N[C@@H](C(=O)O)c1ccccc1 [R-2-Phenylglycine] | − |  |  |
| NC(Cc1ccc(O)cc1)C(=O)O (racemic) [DL-Tyrosine] | − | sufficient decontamination |  |
| O=C(O)CCC(=O)C(=O)O [2-Ketoglutaric Acid] |  |  | RESULTS AFTER DISINFECTION 1 hour (biofilm scale) ([2]; pH 5): −; RESULTS AFTER DISINFECTION 18 hours (biofilm scale) ([2]; pH 5): −; RESULTS AFTER DISINFECTION Growth ([1]; pH 5): − |
| NCC(=O)O [Glycine] | − | sufficient decontamination |  |
| O=C(O)CNCC(=O)O [Iminodiacetic Acid] | − |  | RESULTS AFTER DISINFECTION 1 hour (biofilm scale) [2, 6]: −; RESULTS AFTER DISINFECTION 18 hours (biofilm scale) [2, 7]: − |
| O=C(O)CN(CCO)CCO [Bicine] | − | sufficient decontamination |  |
| Sodium n-decyl diphenylether disulfonate [SDDD] |  |  | detergent capable of dislodging biofilms [2]: capable of dislodging biofilms |
| O=C(O)C(Cl)Cl [Dichloroacetic Acid] | − |  | acceptably performing acids: decontamination within the specified times ([2]; pH 5): sufficient decontamination |
| O=C(O)C(O)C(O)C(=O)O [D-Tartric acid] | − |  |  |
| O=C(O)CC(=O)O [Malonic Acid] | − |  |  |
| O=C(O)C(O)c1ccccc1 (centres unmarked) [Mandelic Acid] | − |  | salt-forming acid tried against biofilm ([2]; mandelic acid 1% to 10%): success; RESULTS AFTER DISINFECTION 1 hour (biofilm scale) [2, 6]: −; RESULTS AFTER DISINFECTION 18 hours (biofilm scale) [2, 7]: − |
| N[C@@H](Cc1c[nH]c2ccccc12)C(=O)O [L-Tryptophan] |  |  | acceptably performing acids: decontamination within the specified times ([2]; pH 5): sufficient decontamination; RESULTS AFTER DISINFECTION Growth ([1]; pH 5): − |
| CC(O)C(=O)O (centres unmarked) [Lactic Acid] | − |  |  |
| OO [hydrogen peroxide, Hydrogen peroxide] |  |  | killing activity of bactericide, even against Mycobacterium sp. [3]: broad host killing activity; also recorded: efficient; growth after treatment ([1]; hydrogen peroxide 5% in Table 1 solutions): total absence of growth |
| O=C1O[C@H]([C@@H](O)CO)C(O)=C1O [L-Ascorbic Acid] | − |  | RESULTS AFTER DISINFECTION 1 hour (biofilm scale) [2, 6]: ++++ |
| O=C(O)CC(O)(CC(=O)O)C(=O)O [Citric Acid] | − | sufficient decontamination |  |
| O=C(O)/C=C/C(=O)O [Fumaric Acid] | − |  | RESULTS AFTER DISINFECTION 1 hour (biofilm scale) [2, 6]: −; RESULTS AFTER DISINFECTION 18 hours (biofilm scale) [2, 7]: − |
| O=C(O)c1ccccc1C(=O)O [Phthalic Acid] | − | sufficient decontamination |  |
| O=C(O)CO [Glycolic Acid] | − |  | RESULTS AFTER DISINFECTION 1 hour (biofilm scale) [2, 6]: −; RESULTS AFTER DISINFECTION 18 hours (biofilm scale) [2, 7]: − |
| O=C(O)CCl [Chloroacetic Acid] |  |  | RESULTS AFTER DISINFECTION 18 hours (biofilm scale) ([2]; pH 5): −; RESULTS AFTER DISINFECTION Growth ([1]; pH 5): − |
| O=C(O)CCCCC(=O)O [Adipic Acid] | − | sufficient decontamination |  |
| N[C@@H](CO)C(=O)O [L-Serine] | − | sufficient decontamination |  |
| O=P(O)(O)O [Phosphoric Acid (H3PO4), Phosphoric Acid] | − |  | RESULTS AFTER DISINFECTION 18 hours (biofilm scale) [2, 7]: − |
| CC(N)C(=O)O (racemic) [DL-Alanine] | − |  | RESULTS AFTER DISINFECTION 18 hours (biofilm scale) [2, 7]: − |
| R-Chloromandelic Acid | − | sufficient decontamination |  |
| Ketopimelic Acid | − | sufficient decontamination |  |

| Molecule | RESULTS AFTER DISINFECTION Growth [1, 4] | acceptably performing acids: decontamination within the specified times [2, 5] | also measured |
| --- | --- | --- | --- |
| O=C(O)Cc1ccccc1 [Phenylacetic Acid] | − | sufficient decontamination |  |
| O=C(O)c1ccccc1 [Benzoic Acid] |  |  | acceptably performing acids: decontamination within the specified times ([2]; pH 5): sufficient decontamination; RESULTS AFTER DISINFECTION Growth ([1]; pH 5): − |
| Povidone-iodine |  |  | efficiency of bactericide combined to detergent ([2]; combined to the detergent Tween 20): significant efficiency; detergent capable of dislodging biofilms [2]: capable of dislodging biofilms; bactericide tried in cleaning solution [1]: success |
| NC(=O)C(=O)O [Oxamic Acid] | − | sufficient decontamination |  |
| N[C@@H](CC(=O)O)C(=O)O [L-Aspartic Acid] | − |  | RESULTS AFTER DISINFECTION 18 hours (biofilm scale) [2, 7]: − |
| O=C(O)CNC(CO)(CO)CO [Tricine] | − | sufficient decontamination |  |
| Tetrasodium EDTA |  |  | chelator tried against biofilms [2]: a certain degree of success |
| Oc1ccccc1 [phenol] |  |  | killing activity of bactericide, even against Mycobacterium sp. [3]: efficient; bactericide tried in cleaning solution [1]: success |
| O=C(O)C(=O)O [Oxalic Acid] | − | sufficient decontamination |  |
| OCl [sodium hypochlorite] |  |  | killing activity of bactericide, even against Mycobacterium sp. [3]: broad host killing activity; also recorded: efficient |
| O=C(O)CCC(=O)O [Succinic Acid] | − | sufficient decontamination |  |
| O=C(O)[C@@H](O)[C@H](O)[C@H](O)[C@@H](O)C(=O)O [Mucic Acid] | − |  | RESULTS AFTER DISINFECTION 1 hour (biofilm scale) [2, 6]: −; RESULTS AFTER DISINFECTION 18 hours (biofilm scale) [2, 7]: − |
| O=C(O)/C=C\C(=O)O [Maleic Acid] | − | sufficient decontamination |  |
| O=C(O)c1ccccc1O [Salicylic Acid] | − | sufficient decontamination |  |
| N[C@H](Cc1ccccc1)C(=O)O [D-Phenylalanine] | − |  |  |
| CC(=O)C(=O)O [Pyruvic Acid] | − |  | RESULTS AFTER DISINFECTION 18 hours (biofilm scale) [2, 7]: − |
| O=CO [Formic Acid] |  |  | acceptably performing acids: decontamination within the specified times ([2]; pH 5): sufficient decontamination; RESULTS AFTER DISINFECTION Growth ([1]; pH 5): − |
| OB(O)O [Boric Acid (B(OH)3), Boric Acid] | − | sufficient decontamination |  |
| CCCCCCCCCCCCOS(=O)(=O)[O-].[Na+] [SDS, Sodium dodecyl sulfate] |  |  | biofilm removal efficiency after 18 hours ([2]; SDS 0.15% with 6% hydrogen peroxide, HEEDTA 0.3%, acetic acid 0.1%, zinc sulfate heptahydrate 0.1%, pH adjusted to 5, 18 hours): perfect efficiency; biofilm removal activity after one hour ([2]; SDS 0.15% with 6% hydrogen peroxide, HEEDTA 0.3%, acetic acid 0.1%, zinc sulfate heptahydrate 0.1%, pH adjusted to 5, one hour, sulfate): very good activity; also recorded: did work well; cleaning efficacy within one hour ([2]; SDS 1%, within one hour): perfect cleaning efficacy; detergent capable of dislodging biofilms [2]: capable of dislodging biofilms |
| O=C(O)CN(CC(=O)O)CC(=O)O [Nitrilotriacetic Acid] | − | sufficient decontamination |  |
| CC(=O)O [Acetic Acid] | − |  | salt-forming acid tried against biofilm ([2]; acetic acid 0.1% to 1%): very efficient; RESULTS AFTER DISINFECTION 1 hour (biofilm scale) [2, 6]: −; RESULTS AFTER DISINFECTION 18 hours (biofilm scale) [2, 7]: − |
| Sodium cocoyl sarcosinate [SCS] |  |  | detergent capable of dislodging biofilms [2]: capable of dislodging biofilms |
| O=C(O)C(=O)c1ccccc1 [Benzoylformic Acid] | − | sufficient decontamination |  |
| O=C(O)CC(O)C(=O)O (centres unmarked) [Malic Acid] | − | sufficient decontamination |  |
| N[C@@H](CCC(=O)O)C(=O)O [Glutamic Acid] | − | sufficient decontamination |  |
| O=C[C@H](O)[C@@H](O)[C@H](O)[C@H](O)C(=O)O [Glucuronic Acid] | − | sufficient decontamination |  |
